Laboratory results published in ChEMBL document CHEMBL1134819, “Design and synthesis of potent and selective inhibitors of integrin VLA-4” (Bioorg Med Chem Lett, 2001).
Blank lines part the entries; values can stand above or below the compound they belong to.

Experiments:
Integrin alpha-4/beta-1 [1] = molecular target: T1, Integrin alpha-4/beta-1 (Homo sapiens, UniProt P05556+P13612); test: In vitro Very late antigen 4 cell adhesion inhibitory activity measured by binding of fluorescently labeled Ramos cells to immobilized VCAM-1.; format: cell-based
[2] = Inhibition of fluorescent Ramos cell adhesion to ICAM-1 by mouse Mac-1 integrin; format: functional, cell-based
[3] = molecular target: Integrin alpha-4/beta-1, Mus musculus; test: Inhibition of fluorescent Ramos cell adhesion to VCAM-1 by mouse Very late antigen 4 (VLA-4) integrin
[4] = molecular target: Integrin alpha-4/beta-1, Rattus norvegicus; test: Inhibition of fluorescent Ramos cell adhesion to VCAM-1 by rat Very late antigen 4 (VLA-4) integrin
Integrin alpha-5/beta-1 = Integrin alpha-5/beta-1 (Homo sapiens, UniProt P05556+P08648); test: Inhibition of fluorescent Ramos cell adhesion to fibronectin by Very late antigen 5 (VLA-5); format: functional, cell-based
[5] = Inhibition of fluorescent Ramos cell adhesion to vitronectin by alpha-V-beta-3-alphaV/beta-5 integrins; format: functional, cell-based, Homo sapiens
Integrin alpha-4/beta-1 [6] = molecular target: T1, Integrin alpha-4/beta-1; test: Inhibition of fluorescent Ramos cell adhesion to fibronectin by Very late antigen 4 (VLA-4); format: cell-based
Integrin alpha-4/beta-7 [7] = molecular target: T2, Integrin alpha-4/beta-7 (Homo sapiens, UniProt P13612+P26010); test: (§1) Inhibition of fluorescent Ramos cell adhesion to VCAM-1 by alpha4-beta7 integrin; format: protein-complex assay
T2 sequence (P13612 whole entry): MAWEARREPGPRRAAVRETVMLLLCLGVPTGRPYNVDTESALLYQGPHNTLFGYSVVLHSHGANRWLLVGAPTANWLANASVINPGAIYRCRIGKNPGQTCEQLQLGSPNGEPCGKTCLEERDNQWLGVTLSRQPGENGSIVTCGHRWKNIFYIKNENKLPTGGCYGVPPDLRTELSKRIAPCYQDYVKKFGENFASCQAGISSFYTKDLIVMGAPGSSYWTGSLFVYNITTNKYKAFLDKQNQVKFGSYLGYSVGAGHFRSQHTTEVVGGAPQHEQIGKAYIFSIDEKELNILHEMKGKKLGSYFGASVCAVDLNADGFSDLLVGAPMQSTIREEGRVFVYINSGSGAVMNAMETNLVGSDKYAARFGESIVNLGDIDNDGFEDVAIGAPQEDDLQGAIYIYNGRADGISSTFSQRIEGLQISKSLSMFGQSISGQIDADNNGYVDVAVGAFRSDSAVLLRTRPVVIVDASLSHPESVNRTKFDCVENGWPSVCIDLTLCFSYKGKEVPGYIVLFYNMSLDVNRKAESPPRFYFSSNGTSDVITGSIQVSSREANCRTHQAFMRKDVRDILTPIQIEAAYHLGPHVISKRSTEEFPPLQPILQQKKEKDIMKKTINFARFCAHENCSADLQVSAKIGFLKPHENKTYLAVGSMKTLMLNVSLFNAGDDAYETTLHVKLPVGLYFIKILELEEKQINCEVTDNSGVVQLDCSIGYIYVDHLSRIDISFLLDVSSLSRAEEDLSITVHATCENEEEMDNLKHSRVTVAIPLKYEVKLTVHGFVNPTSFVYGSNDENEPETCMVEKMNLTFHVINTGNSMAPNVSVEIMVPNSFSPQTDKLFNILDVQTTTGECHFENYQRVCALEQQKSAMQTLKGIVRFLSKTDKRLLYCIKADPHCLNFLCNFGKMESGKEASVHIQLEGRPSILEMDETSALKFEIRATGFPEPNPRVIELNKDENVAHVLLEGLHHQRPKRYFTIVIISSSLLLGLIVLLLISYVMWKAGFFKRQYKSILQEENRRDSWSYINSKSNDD
T2 sequence (P26010 whole entry): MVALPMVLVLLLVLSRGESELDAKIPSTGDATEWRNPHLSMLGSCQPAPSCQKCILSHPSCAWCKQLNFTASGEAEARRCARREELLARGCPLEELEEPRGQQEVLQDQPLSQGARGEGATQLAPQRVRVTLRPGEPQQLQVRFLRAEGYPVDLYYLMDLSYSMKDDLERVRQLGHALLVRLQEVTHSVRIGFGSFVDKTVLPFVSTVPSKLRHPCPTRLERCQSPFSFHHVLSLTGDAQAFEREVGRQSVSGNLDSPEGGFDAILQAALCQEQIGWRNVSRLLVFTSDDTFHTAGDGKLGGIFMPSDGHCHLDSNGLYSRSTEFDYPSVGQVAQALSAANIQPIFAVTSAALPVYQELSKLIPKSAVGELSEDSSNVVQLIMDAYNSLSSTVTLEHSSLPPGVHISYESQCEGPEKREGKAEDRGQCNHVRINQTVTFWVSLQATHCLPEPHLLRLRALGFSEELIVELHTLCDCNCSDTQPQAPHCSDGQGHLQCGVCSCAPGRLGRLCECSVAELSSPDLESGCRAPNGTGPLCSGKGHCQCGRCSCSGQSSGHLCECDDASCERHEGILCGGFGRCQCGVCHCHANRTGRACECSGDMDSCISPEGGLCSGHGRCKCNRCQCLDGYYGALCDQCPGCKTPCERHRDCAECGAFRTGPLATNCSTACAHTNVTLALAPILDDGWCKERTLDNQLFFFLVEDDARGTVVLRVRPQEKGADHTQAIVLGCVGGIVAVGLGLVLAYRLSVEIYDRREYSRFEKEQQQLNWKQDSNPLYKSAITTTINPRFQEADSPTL

Integrin alpha-4/beta-7 [8] = molecular target: T2, Integrin alpha-4/beta-7; test: as §1; format: cell-based
[9] = molecular target: Integrin alpha-4/beta-1, Mus musculus; test: Inhibition of fluorescent Ramos cell adhesion to VCAM-1 by mouse Very late antigen 4 (VLA-4) integrin; remark: listed apart in the source

Chain of Integrin alpha-5/beta-1 (P05556 21-798 limits assumed): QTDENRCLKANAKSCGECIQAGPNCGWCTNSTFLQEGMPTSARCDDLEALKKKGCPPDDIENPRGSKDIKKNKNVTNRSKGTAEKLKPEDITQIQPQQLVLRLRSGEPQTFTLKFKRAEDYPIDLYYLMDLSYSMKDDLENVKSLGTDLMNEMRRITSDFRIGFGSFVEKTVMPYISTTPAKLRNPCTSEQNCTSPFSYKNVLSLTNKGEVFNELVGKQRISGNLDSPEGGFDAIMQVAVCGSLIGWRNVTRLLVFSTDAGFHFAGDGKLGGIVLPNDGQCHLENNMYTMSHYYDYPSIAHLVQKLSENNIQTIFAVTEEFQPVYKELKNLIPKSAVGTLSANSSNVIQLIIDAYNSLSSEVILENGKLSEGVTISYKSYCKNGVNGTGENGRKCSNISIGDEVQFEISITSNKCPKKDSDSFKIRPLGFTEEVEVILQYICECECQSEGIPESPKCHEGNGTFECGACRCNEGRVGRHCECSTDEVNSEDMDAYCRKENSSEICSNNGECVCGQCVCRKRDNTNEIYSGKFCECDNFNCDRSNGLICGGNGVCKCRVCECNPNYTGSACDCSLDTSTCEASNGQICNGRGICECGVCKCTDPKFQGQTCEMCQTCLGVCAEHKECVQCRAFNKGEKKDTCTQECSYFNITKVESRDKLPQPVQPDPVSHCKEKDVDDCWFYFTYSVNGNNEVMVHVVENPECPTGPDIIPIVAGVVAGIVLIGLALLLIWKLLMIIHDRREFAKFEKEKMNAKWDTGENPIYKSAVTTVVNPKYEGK
Chain of Integrin alpha-5/beta-1 (P08648 42-894 limits assumed): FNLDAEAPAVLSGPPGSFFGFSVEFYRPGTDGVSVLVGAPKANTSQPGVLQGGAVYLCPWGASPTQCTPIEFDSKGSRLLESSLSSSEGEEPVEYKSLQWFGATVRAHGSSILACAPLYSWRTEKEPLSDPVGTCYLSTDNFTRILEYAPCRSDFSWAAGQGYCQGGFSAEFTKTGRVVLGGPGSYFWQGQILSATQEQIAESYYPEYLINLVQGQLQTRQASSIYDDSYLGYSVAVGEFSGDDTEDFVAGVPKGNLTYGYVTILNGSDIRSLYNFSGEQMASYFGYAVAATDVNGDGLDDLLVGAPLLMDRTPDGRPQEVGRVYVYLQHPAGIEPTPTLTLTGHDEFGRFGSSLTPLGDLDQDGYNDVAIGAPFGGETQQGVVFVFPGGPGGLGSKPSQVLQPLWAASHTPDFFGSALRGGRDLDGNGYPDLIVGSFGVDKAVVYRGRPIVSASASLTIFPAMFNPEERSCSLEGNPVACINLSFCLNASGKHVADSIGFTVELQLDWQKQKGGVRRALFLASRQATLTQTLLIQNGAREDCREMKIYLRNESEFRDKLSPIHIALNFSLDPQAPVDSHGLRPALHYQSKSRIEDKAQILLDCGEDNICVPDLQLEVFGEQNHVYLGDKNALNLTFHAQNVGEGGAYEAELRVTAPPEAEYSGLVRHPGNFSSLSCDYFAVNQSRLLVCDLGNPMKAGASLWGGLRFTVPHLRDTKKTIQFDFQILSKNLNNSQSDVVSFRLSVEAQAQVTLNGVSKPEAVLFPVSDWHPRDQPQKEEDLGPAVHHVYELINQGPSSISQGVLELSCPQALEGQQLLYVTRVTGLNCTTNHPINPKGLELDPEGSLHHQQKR
Chain of Integrin alpha-5/beta-1 (P08648 895-1049 limits assumed): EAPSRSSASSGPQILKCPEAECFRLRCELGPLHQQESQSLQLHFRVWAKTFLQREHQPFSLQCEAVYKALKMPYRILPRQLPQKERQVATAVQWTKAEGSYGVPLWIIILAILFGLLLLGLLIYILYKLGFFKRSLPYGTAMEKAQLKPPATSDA
T1 sequence (P05556 whole entry, one chain of several): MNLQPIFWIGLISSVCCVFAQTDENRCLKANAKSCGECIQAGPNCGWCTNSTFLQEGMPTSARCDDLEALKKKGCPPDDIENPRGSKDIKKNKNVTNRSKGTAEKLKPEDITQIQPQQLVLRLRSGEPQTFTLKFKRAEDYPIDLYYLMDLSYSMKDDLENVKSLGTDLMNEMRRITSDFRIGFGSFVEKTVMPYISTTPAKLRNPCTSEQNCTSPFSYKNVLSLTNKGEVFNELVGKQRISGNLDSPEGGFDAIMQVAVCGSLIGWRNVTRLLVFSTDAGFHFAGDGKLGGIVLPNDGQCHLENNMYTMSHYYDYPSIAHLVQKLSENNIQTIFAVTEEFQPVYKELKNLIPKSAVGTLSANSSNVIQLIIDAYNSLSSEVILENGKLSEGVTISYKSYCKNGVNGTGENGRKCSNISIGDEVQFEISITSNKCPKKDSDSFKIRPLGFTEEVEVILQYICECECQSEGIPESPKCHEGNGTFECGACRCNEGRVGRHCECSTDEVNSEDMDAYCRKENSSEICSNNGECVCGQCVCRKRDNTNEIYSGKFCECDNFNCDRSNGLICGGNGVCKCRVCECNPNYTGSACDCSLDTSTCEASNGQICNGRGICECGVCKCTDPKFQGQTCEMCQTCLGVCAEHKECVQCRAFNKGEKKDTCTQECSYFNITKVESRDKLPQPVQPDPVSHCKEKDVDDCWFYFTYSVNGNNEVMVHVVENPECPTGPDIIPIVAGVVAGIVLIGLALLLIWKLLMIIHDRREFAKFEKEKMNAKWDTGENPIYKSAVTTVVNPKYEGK

- IC50 (Integrin alpha-4/beta-1 [1]): 103000 nM
Compound: C/C=C/[C@@H](CC(=O)O)NC(=O)C[C@@H](CC(C)C)NC(=O)Cc1ccc(NC(=O)Nc2ccccc2C)cc1

- IC50 [2]: > 500000 nM
- IC50 (Integrin alpha-4/beta-1 [1]): 11.7 nM
- IC50 [3]: 21.7 nM
- IC50 [4]: 24.5 nM
- IC50 (Integrin alpha-5/beta-1): > 500000 nM
- IC50 [5]: > 100000 nM
- IC50 (Integrin alpha-4/beta-1 [6]): 14.4 nM
- IC50 (Integrin alpha-4/beta-7 [7]): > 100000 nM
Compound: COCCCN(CC(=O)N[C@@H](CC(=O)O)c1ccccc1)C(=O)Cc1ccc(NC(=O)Nc2ccccc2C)cc1

- IC50 (Integrin alpha-4/beta-1 [1]): 7300 nM
Compound: Cc1ccccc1NC(=O)Nc1ccc(CC(=O)N[C@H](CC(=O)N[C@@H](CC(=O)O)c2ccccc2)CC(C)C)cc1

- IC50 (Integrin alpha-4/beta-1 [1]): 3 nM
Compound: Cc1ccccc1NC(=O)Nc1ccc(CC(=O)N[C@@H](CC(C)C)C(=O)N[C@@H](CC(=O)O)c2ccc3c(c2)OCO3)cc1

- IC50 (Integrin alpha-4/beta-1 [1]): 98 nM
Compound: Cc1ccccc1NC(=O)Nc1ccc(CC(=O)N(CCC(C)C)CC(=O)N(CCC(=O)O)CCc2ccccc2)cc1

- IC50 (Integrin alpha-4/beta-1 [1]): 262000 nM
Compound: Cc1ccccc1NC(=O)Nc1ccc(CC(=O)N[C@@H](CC(=O)N[C@@H](CC(=O)O)c2ccccc2)CC(C)C)cc1

- IC50 (Integrin alpha-4/beta-1 [1]): 11000 nM
Compound: C=CCN(CC(=O)O)NC(=O)[C@@H](CC(C)C)NC(=O)Cc1ccc(NC(=O)Nc2ccccc2C)cc1

- IC50 (Integrin alpha-4/beta-1 [1]): 75000 nM
Compound: CCOC(=O)C[C@H](NC(=O)CN(CCCOC)C(=O)Cc1ccc(NC(=O)Nc2ccccc2C)cc1)c1ccc(OC)cc1

- IC50 (Integrin alpha-4/beta-1 [1]): 37000 nM
Compound: Cc1ccccc1NC(=O)Nc1ccc(CC(=O)N[C@H](CC(C)C)C(=O)N(CCC(=O)O)CCc2ccccc2)cc1

- IC50 [2]: > 500000 nM
- IC50 (Integrin alpha-4/beta-1 [1]): 7.1 nM
- IC50 [3]: 27.3 nM
- IC50 [4]: 21.6 nM
- IC50 (Integrin alpha-5/beta-1): > 500000 nM
- IC50 [5]: > 100000 nM
- IC50 (Integrin alpha-4/beta-1 [6]): 13.4 nM
- IC50 (Integrin alpha-4/beta-7 [7]): > 100000 nM
Compound: COCCCN(CC(=O)N[C@@H](CC(=O)O)c1ccc(OC)c(OC)c1)C(=O)Cc1ccc(NC(=O)Nc2ccccc2C)cc1

- IC50 (Integrin alpha-4/beta-1 [1]): 20 nM
Compound: COc1ccc([C@H](CC(=O)O)NC(=O)CN(CCC(C)C)C(=O)Cc2ccc(NC(=O)Nc3ccccc3C)cc2)cc1OC

- IC50 (Integrin alpha-4/beta-1 [1]): 16.5 nM
Compound: C=CC[C@H](CC(=O)O)NC(=O)[C@H](CC(C)C)NC(=O)Cc1ccc(NC(=O)Nc2ccccc2C)cc1

- IC50 (Integrin alpha-4/beta-1 [1]): 45 nM
Compound: C/C=C/[C@H](CC(=O)O)NC(=O)CN(CCC(C)C)C(=O)Cc1ccc(NC(=O)Nc2ccccc2C)cc1

- IC50 (Integrin alpha-4/beta-1 [1]): 29 nM
Compound: Cc1ccccc1NC(=O)Nc1ccc(CC(=O)N(CCC(C)C)CC(=O)N[C@@H](CC(=O)O)c2ccccc2)cc1

- IC50 [2]: > 500000 nM
- IC50 (Integrin alpha-4/beta-1 [1]): 4.7 nM
- IC50 [3]: 51.9 nM
- IC50 (Integrin alpha-4/beta-7 [8]): 6140 nM
- IC50 [4]: 27.2 nM
- IC50 (Integrin alpha-5/beta-1): > 500000 nM
- IC50 [5]: > 100000 nM
- IC50 (Integrin alpha-4/beta-1 [6]): 36 nM
Compound: COCCCN(CC(=O)N[C@@H](CC(=O)O)c1ccc(OC)cc1)C(=O)Cc1ccc(NC(=O)Nc2ccccc2C)cc1

- IC50 [2]: > 500000 nM
- IC50 (Integrin alpha-4/beta-1 [1]): 15.4 nM
- IC50 [4]: 20.5 nM
- IC50 (Integrin alpha-5/beta-1): > 500000 nM
- IC50 [5]: 59000 nM
- IC50 [9]: 7.7 nM
- IC50 (Integrin alpha-4/beta-1 [6]): 7.9 nM
- IC50 (Integrin alpha-4/beta-7 [7]): > 100000 nM
Compound: C/C=C/[C@H](CC(=O)O)NC(=O)CN(CCCOC)C(=O)Cc1ccc(NC(=O)Nc2ccccc2C)cc1

- IC50 (Integrin alpha-4/beta-1 [1]): 2900 nM
Compound: Cc1ccccc1NC(=O)Nc1ccc(CC(=O)NN(CC(C)C)C(=O)NC(CC(=O)O)c2ccccc2)cc1 (centres undefined)

- IC50 (Integrin alpha-4/beta-1 [1]): 1.3 nM
Compound: COCCCCN(CC(=O)N[C@@H](CC(=O)O)c1ccc(OC)c(OC)c1)C(=O)Cc1ccc(NC(=O)Nc2ccccc2C)cc1

- IC50 (Integrin alpha-4/beta-1 [1]): 247000 nM
Compound: Cc1ccccc1NC(=O)Nc1ccc(CC(=O)N[C@H](CC(=O)N(CC(=O)O)Cc2ccccc2)CC(C)C)cc1

- IC50 (Integrin alpha-4/beta-1 [1]): 5900 nM
Compound: C=CCC(CC(=O)O)NC(=O)N(CC(C)C)NC(=O)Cc1ccc(NC(=O)Nc2ccccc2C)cc1 (centres undefined)

- IC50 (Integrin alpha-4/beta-1 [1]): 6400 nM
Compound: Cc1ccccc1NC(=O)Nc1ccc(CC(=O)N[C@H](CC(=O)N[C@@H](C(=O)O)c2ccccc2)CC(C)C)cc1
